Experimental data as given in ChEMBL document CHEMBL1155026, “Biaryl and heteroaryl derivatives of SCH 58261 as potent and selective adenosine A2A receptor antagonists” (Bioorg Med Chem Lett, 2008).
In brackets after ≈: the same amount, converted by molar mass.

Key:
Adenosine receptor A2a = Adenosine receptor A2a (Homo sapiens, UniProt P29274)
Description: Antagonist activity at human adenosine A2A receptor

[1] = Kinetic solubility of compound at pH 7.4 by nephelometry; type: physicochemical; conditions: buffer
Rattus norvegicus [2] = test: Inhibition of haloperidol-induced catalepsy in rat at 1 mg/kg, po after 1 hr; type: functional
Rattus norvegicus [3] = test: Inhibition of haloperidol-induced catalepsy in rat at 1 mg/kg, po after 4 hrs; type: functional
Rattus norvegicus [4] = test: Inhibition of haloperidol-induced catalepsy in rat at 3 mg/kg, po after 4 hrs; type: functional
[5] = AUC (0 to 6 hrs) in rat at 3 mg/kg, po; type: ADME, organism-based; set-up: time < 6 hr, dose 3 mg/kg, route oral; conditions: plasma
Rattus norvegicus [6] = test: Inhibition of haloperidol-induced catalepsy in rat at 3 mg/kg, po after 1 hr; type: functional
Rattus norvegicus [7] = test: Inhibition of haloperidol-induced catalepsy in rat at 1 or 3 mg/kg, po after 1 hr; type: functional
Rattus norvegicus [8] = test: Inhibition of haloperidol-induced catalepsy in rat at 1 or 3 mg/kg, po after 4 hrs; type: functional

Adenosine receptor A2a, sequence (P29274 whole entry): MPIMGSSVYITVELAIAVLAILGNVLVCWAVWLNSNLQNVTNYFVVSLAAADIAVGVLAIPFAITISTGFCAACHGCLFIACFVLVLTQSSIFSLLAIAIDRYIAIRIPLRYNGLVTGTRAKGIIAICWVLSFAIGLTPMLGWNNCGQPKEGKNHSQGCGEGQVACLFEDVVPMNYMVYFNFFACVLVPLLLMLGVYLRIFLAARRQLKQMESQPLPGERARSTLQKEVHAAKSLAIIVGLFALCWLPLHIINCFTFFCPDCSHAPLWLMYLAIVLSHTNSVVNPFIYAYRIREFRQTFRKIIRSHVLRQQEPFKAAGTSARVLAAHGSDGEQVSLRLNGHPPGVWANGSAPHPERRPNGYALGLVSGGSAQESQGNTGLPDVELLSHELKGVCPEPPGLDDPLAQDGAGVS

AUC(0-t) at 6 h [5] [ng·h/mL] | SMILES | Ki (Adenosine receptor A2a) [nM] | solubility kinetic [1] [µM] | inhibition in vivo at 1 mg/kg (Rattus norvegicus [2]) [%] | inhibition in vivo at 1 mg/kg (Rattus norvegicus [3]) [%] | inhibition in vivo at 3 mg/kg (Rattus norvegicus [4]) [%] | inhibition in vivo at 3 mg/kg (Rattus norvegicus [6]) [%] | inhibition in vivo at 3 mg/kg (Rattus norvegicus [7]) [%] | inhibition in vivo at 3 mg/kg (Rattus norvegicus [8]) [%]
 | COCCOC(C)c1ccc2cc(CCn3ncc4c3nc(N)n3nc(-c5ccco5)nc43)ccc2n1 (stereo not given) | 1.5 |  |  |  |  |  |  | 
 | Nc1nc2c(cnn2CCc2cccc(-c3cccnc3)c2)c2nc(-c3ccco3)nn12 | 5.5 |  |  |  |  |  |  | 
 | COc1ccc(-c2ccc(CCn3ncc4c3nc(N)n3nc(-c5ccco5)nc43)cc2)cc1 | 0.5 | < 5 | 30 | 5 |  |  |  | 
 | COc1ccc(-c2ccc(CCn3ncc4c3nc(N)n3nc(-c5ccco5)nc43)cc2)cn1 | 1.9 | < 5 |  |  | 0 |  |  | 
 | Nc1nc2c(cnn2CCc2ccc(-c3cccnc3)cn2)c2nc(-c3ccco3)nn12 | 11.4 |  |  |  |  |  |  | 
656 | Nc1nc2c(cnn2CCc2ccc3nc(CN4CCOCC4)ccc3c2)c2nc(-c3ccco3)nn12 | 2.3 |  |  |  | 0 | 0 |  | 
1400 | Cc1ccc2cc(CCn3ncc4c3nc(N)n3nc(-c5ccco5)nc43)ccc2n1 | 2.4 | 6 (≈ 2.46 µg/mL) |  |  | 38 | 86 |  | 
450 | CCc1ccc2cc(CCn3ncc4c3nc(N)n3nc(-c5ccco5)nc43)ccc2n1 | 2.7 | < 2.5 |  |  | 38 | 43 |  | 
 | Nc1nc2c(cnn2CCc2ccc3nc(C(=O)N4CCOCC4)ccc3c2)c2nc(-c3ccco3)nn12 | 1.6 | 100 (≈ 51 µg/mL) |  |  | 13 | 23 |  | 
 | Nc1nc2c(cnn2CCc2ccc(-c3ccccc3)cc2)c2nc(-c3ccco3)nn12 | 1.1 |  |  |  |  |  |  | 
351 | Nc1nc2c(cnn2CCc2ccc(-c3cccnc3)cc2)c2nc(-c3ccco3)nn12 | 1.5 | < 4 | 40 | 25 |  |  |  | 
67 | Nc1nc2c(cnn2CCc2ccc(-c3ccc(OC(F)(F)F)cc3)cc2)c2nc(-c3ccco3)nn12 | 7.8 | < 5 |  |  |  |  | 20 | 0

SMILES | AUC(0-t) at 6 h [5] [ng·h/mL] | Ki (Adenosine receptor A2a) [nM] | solubility kinetic [1] [µM] | inhibition in vivo at 1 mg/kg (Rattus norvegicus [2]) [%] | inhibition in vivo at 1 mg/kg (Rattus norvegicus [3]) [%] | inhibition in vivo at 3 mg/kg (Rattus norvegicus [4]) [%] | inhibition in vivo at 3 mg/kg (Rattus norvegicus [6]) [%] | inhibition in vivo at 3 mg/kg (Rattus norvegicus [7]) [%] | inhibition in vivo at 3 mg/kg (Rattus norvegicus [8]) [%]
Nc1nc2c(cnn2CCc2ccc(-c3cnccn3)cc2)c2nc(-c3ccco3)nn12 | 114 | 0.9 | < 4 |  |  | 3 |  |  | 
CC(c1ccc2cc(CCn3ncc4c3nc(N)n3nc(-c5ccco5)nc43)ccc2n1)N1CCOCC1 (stereo not given) | 7490 | 1.3 | 100 (≈ 51 µg/mL) |  |  | 13 | 28 |  | 
Cc1ccc(-c2ccc(CCn3ncc4c3nc(N)n3nc(-c5ccco5)nc43)cc2)cn1 | 199 | 0.6 | < 5 |  |  |  |  | 60 | 25
Nc1nc2c(cnn2CCc2ccc3nc(N4CCOCC4)ccc3c2)c2nc(-c3ccco3)nn12 | 6 | 1.8 |  |  |  |  |  |  | 
